Experimental data as given in ChEMBL document CHEMBL4483862, “Open-source discovery of chemical leads for next-generation chemoprotective antimalarials” (2018).

System: Plasmodium berghei
Test: Luciferase/luciferin-expressing antifolate-resistant parasites were used to infect a culture of HepG2 cells that were pre-incubated with compounds. Infected hepatocytes emit light due to the luciferase reaction. Assay results are presented as the percent inhibition of light emission compared to control. […]
Type: functional
Conditions: sporozoite; for IC90: read-out: LUCIFERASE INFECTION ASSAY - IC90

Row | SMILES | IC90 | other results
1 | NC(Cc1ccc(C(F)(F)F)cc1)c1csc(NC(=O)Nc2ccccc2Cc2ccccc2)n1 (stereo not given) | 6.33 µM | IC50 (PBLUC_HILL_SLOPE 25.9, PBLUC_R_SQUARED 0.261, read-out: LUCIFERASE INFECTION ASSAY - IC50): 5.82 µM
2 | NC(c1csc(NC(=O)Nc2cccc(C(F)(F)F)c2)n1)C1CCCCC1 (stereo not given) | 6.65 µM | IC50 (PBLUC_HILL_SLOPE 23.3, PBLUC_R_SQUARED 0.126, read-out: LUCIFERASE INFECTION ASSAY - IC50): 6.05 µM
3 | COc1ccc(-c2cc(-c3ccc(O)cc3)cnc2N)cn1 | 10.6 µM | IC50 (PBLUC_HILL_SLOPE 26.5, PBLUC_R_SQUARED 0.457, read-out: LUCIFERASE INFECTION ASSAY - IC50): 9.73 µM
4 | Nc1cc(C(F)(F)F)ccc1Sc1ccccn1 | > 12.2 µM | IC50 (PBLUC_HILL_SLOPE 27.6, PBLUC_R_SQUARED 0.179, read-out: LUCIFERASE INFECTION ASSAY - IC50): 11.8 µM
5 | O=C(CO/N=C/c1ccc(OCc2ccccc2)c(OCc2ccccc2)c1)N1CCCCCC1 | > 10 µM | IC50 (PBLUC_HILL_SLOPE 29.4, PBLUC_R_SQUARED 0.303, read-out: LUCIFERASE INFECTION ASSAY - IC50): 9.83 µM
6 | Cn1c(SCc2nc3ccc(Cl)cc3n2CCO)nc2scc(-c3ccc(F)cc3)c2c1=O | 3.59 µM | IC50 (PBLUC_HILL_SLOPE 30.6, PBLUC_R_SQUARED 0.504, read-out: LUCIFERASE INFECTION ASSAY - IC50): 3.34 µM
7 | O=C(OCc1cc(=O)oc2cc(O)ccc12)c1ccc(Cl)c(S(=O)(=O)N2CCCCCC2)c1 | > 10 µM | IC50 (PBLUC_HILL_SLOPE 24.9, PBLUC_R_SQUARED 0.0553, read-out: LUCIFERASE INFECTION ASSAY - IC50): 9.36 µM
8 | c1nc(Nc2ccc(C34CC5CC(CC(C5)C3)C4)cc2)c2ccsc2n1 | 0.884 µM | IC50 (PBLUC_HILL_SLOPE 24.2, PBLUC_R_SQUARED 0.39, read-out: LUCIFERASE INFECTION ASSAY - IC50): 0.808 µM
9 | CC(C)NC(=O)c1c(NC(=O)c2cccc(Cl)c2Cl)nc2ccccn12 | > 8.43 µM | IC50 (PBLUC_HILL_SLOPE 29.4, PBLUC_R_SQUARED 0.349, read-out: LUCIFERASE INFECTION ASSAY - IC50): 7.83 µM
10 | Cc1ccc(O)c(/C=N/NC(=S)NC(C)(C)C)c1 | > 12.4 µM | IC50 (PBLUC_HILL_SLOPE 24.9, PBLUC_R_SQUARED 0.247, read-out: LUCIFERASE INFECTION ASSAY - IC50): 11.8 µM
11 | CC(Oc1ccc2[nH]c3ccccc3c(=O)c2c1)C(=O)NC(=O)NC12CC3CC(CC(C3)C1)C2 (stereo not given) | 3.1 µM | IC50 (PBLUC_HILL_SLOPE 24.7, PBLUC_R_SQUARED 0.64, read-out: LUCIFERASE INFECTION ASSAY - IC50): 2.84 µM
12 | CN1CCCN(c2ncnc3cc(-c4ccc(Cl)cc4)sc23)CC1 | > 10 µM | IC50 (PBLUC_HILL_SLOPE 23.2, PBLUC_R_SQUARED 0.558, read-out: LUCIFERASE INFECTION ASSAY - IC50): 9.79 µM
13 | Cc1ccc2sc(N(Cc3ccccc3)C(=O)CN3CCC(C(N)=O)CC3)nc2c1C | 4.19 µM | IC50 (PBLUC_HILL_SLOPE 23.7, PBLUC_R_SQUARED 0.191, read-out: LUCIFERASE INFECTION ASSAY - IC50): 3.82 µM
14 | Cc1cc(C(=O)ONC(=N)c2c(-c3c(Cl)cccc3Cl)noc2C)no1 | > 8.35 µM | IC50 (PBLUC_HILL_SLOPE 25.8, PBLUC_R_SQUARED 0.198, read-out: LUCIFERASE INFECTION ASSAY - IC50): 8.05 µM
15 | CCc1c(C)[nH]c2cc(-c3ccc(OC)cc3)nn2c1=O | 3.98 µM | IC50 (PBLUC_HILL_SLOPE 29.9, PBLUC_R_SQUARED 0.167, read-out: LUCIFERASE INFECTION ASSAY - IC50): 3.7 µM
16 | COc1ccc(C(=O)/C=C/c2cccc3cccnc23)cc1Br | > 10 µM | IC50 (PBLUC_HILL_SLOPE 24.4, PBLUC_R_SQUARED 0.237, read-out: LUCIFERASE INFECTION ASSAY - IC50): > 10 µM
17 | CC(C)(C)NC(=S)Nc1cc(C(F)(F)F)cc(C(F)(F)F)c1 | > 9.58 µM | IC50 (PBLUC_HILL_SLOPE 27.4, PBLUC_R_SQUARED 0.229, read-out: LUCIFERASE INFECTION ASSAY - IC50): 9.58 µM
18 | Cc1nc(C(=O)N2CCc3c(c(C(=O)NCc4ccccn4)nn3CCc3ccccc3)C2)cs1 | 2.47 µM | IC50 (PBLUC_HILL_SLOPE 26.7, PBLUC_R_SQUARED 0.676, read-out: LUCIFERASE INFECTION ASSAY - IC50): 2.27 µM
19 | Cc1ccc(-c2nc3c(s2)CN(C(=O)c2ccco2)CC3)cc1 | 3.19 µM | IC50 (PBLUC_HILL_SLOPE 23.5, PBLUC_R_SQUARED 0.61, read-out: LUCIFERASE INFECTION ASSAY - IC50): 2.9 µM
20 | Cc1cc(C)c(NC(=NC2CCCCC2)Nc2c(C)cc(C)cc2C)c(C)c1 | 9.33 µM | IC50 (PBLUC_HILL_SLOPE 26.1, PBLUC_R_SQUARED 0.486, read-out: LUCIFERASE INFECTION ASSAY - IC50): 8.58 µM

Row | SMILES | IC90 | other results
21 | O=C(Cc1cn(-c2ccccc2)nc1-c1ccc(Cl)cc1)NCc1ccc(Cn2ccnc2)cc1 | > 10 µM | IC50 (PBLUC_HILL_SLOPE 23, PBLUC_R_SQUARED 0.395, read-out: LUCIFERASE INFECTION ASSAY - IC50): 9.71 µM
22 | COCCn1c(C(=O)OC)c(NC(=O)c2ccco2)c2cc(NCC(C)c3ccccc3)cnc21 (stereo not given) | > 6.93 µM | IC50 (PBLUC_HILL_SLOPE 27.9, PBLUC_R_SQUARED 0.298, read-out: LUCIFERASE INFECTION ASSAY - IC50): 6.65 µM
23 | CC(C)(C)c1ccc(-c2cnc3cnc(-c4ccc(C(=O)NCCO)cc4)cn23)cc1 | > 7.96 µM | IC50 (PBLUC_HILL_SLOPE 23.2, PBLUC_R_SQUARED 0.508, read-out: LUCIFERASE INFECTION ASSAY - IC50): 7.27 µM
24 | CC(Nc1ccc(Oc2cccc(F)c2)cc1)C(=O)N1CCNC1=O (stereo not given) | 1.08 µM | IC50 (PBLUC_HILL_SLOPE 25, PBLUC_R_SQUARED 0.491, read-out: LUCIFERASE INFECTION ASSAY - IC50): 0.991 µM
25 | COc1ccc(-c2cnc3cnc(-c4ccc(N)nc4)cn23)cn1 | 9.27 µM | IC50 (PBLUC_HILL_SLOPE 29.9, PBLUC_R_SQUARED 0.596, read-out: LUCIFERASE INFECTION ASSAY - IC50): 8.62 µM
26 | Cc1c(C(=O)OC(C(=O)c2ccccc2)c2ccccc2)sc2ncn(C)c(=O)c12 (stereo not given) | 8.68 µM | IC50 (PBLUC_HILL_SLOPE 24.2, PBLUC_R_SQUARED 0.462, read-out: LUCIFERASE INFECTION ASSAY - IC50): 7.93 µM
27 | CC(C)N(c1ccccc1)c1ccc(NC(=O)Nc2ccccc2)cc1 | 3.58 µM | IC50 (PBLUC_HILL_SLOPE 27.4, PBLUC_R_SQUARED 0.0577, read-out: LUCIFERASE INFECTION ASSAY - IC50): 3.31 µM
28 | Cn1c(SCC#N)nnc1-c1ccc(C(C)(C)C)cc1 | 1.34 µM | IC50 (PBLUC_HILL_SLOPE 23.6, PBLUC_R_SQUARED 0.364, read-out: LUCIFERASE INFECTION ASSAY - IC50): 1.22 µM
29 | C=S(NC(=O)c1ccc(Cl)cc1)c1sc(C(=O)OCC)c2c1C(=O)CCC2 (stereo not given) | > 7.78 µM | IC50 (PBLUC_HILL_SLOPE 23.8, PBLUC_R_SQUARED 0.121, read-out: LUCIFERASE INFECTION ASSAY - IC50): > 7.78 µM
30 | CN(C)c1cccc(-c2cnc(N)c(-c3ccc(O)cc3)c2)c1 | > 10.8 µM | IC50 (PBLUC_HILL_SLOPE 24.2, PBLUC_R_SQUARED 0.305, read-out: LUCIFERASE INFECTION ASSAY - IC50): 10.5 µM
31 | CCC1CCc2sc(C(=O)Nc3ccccc3O)cc2C1 (stereo not given) | > 10 µM | IC50 (PBLUC_HILL_SLOPE 24.2, PBLUC_R_SQUARED 0.273, read-out: LUCIFERASE INFECTION ASSAY - IC50): 9.71 µM
32 | COc1ccc([N+](=O)[O-])cc1C(=O)NCCOc1ccc2ccccc2c1 | > 10 µM | IC50 (PBLUC_HILL_SLOPE 24.5, PBLUC_R_SQUARED 0.535, read-out: LUCIFERASE INFECTION ASSAY - IC50): 9.5 µM
33 | O=C(C1CCCN(c2cnccn2)C1)N1CCN(C(c2ccc(F)cc2)c2ccc(F)cc2)CC1 (stereo not given) | > 10 µM | IC50 (PBLUC_HILL_SLOPE 27.2, PBLUC_R_SQUARED 0.0353, read-out: LUCIFERASE INFECTION ASSAY - IC50): 9.76 µM
34 | O=C(Nc1ccc(S(=O)(=O)NCCCN2CCOCC2)cc1)c1csc(-c2ccsc2)n1 | > 10 µM | IC50 (PBLUC_HILL_SLOPE 27, PBLUC_R_SQUARED 0.0565, read-out: LUCIFERASE INFECTION ASSAY - IC50): 9.66 µM
35 | CNc1snc(C)c1C(=O)OCc1coc(-c2cccs2)n1 | 0.0184 µM | IC50 (PBLUC_HILL_SLOPE 23.3, PBLUC_R_SQUARED 0.377, read-out: LUCIFERASE INFECTION ASSAY - IC50): 0.0168 µM
36 | c1ccc(-c2cc(-c3ccc(NC4=NCCCS4)cc3)nc3ccccc23)cc1 | 9.46 µM | IC50 (PBLUC_HILL_SLOPE 28.5, PBLUC_R_SQUARED 0.262, read-out: LUCIFERASE INFECTION ASSAY - IC50): 8.76 µM
37 | CCc1c(C(=O)/C=C/c2cc(OC)c(O)c(OC)c2)oc2ccc(C)cc12 | 7.96 µM | IC50 (PBLUC_HILL_SLOPE 25.7, 54.1, PBLUC_R_SQUARED 0.301, 0.609, read-out: LUCIFERASE INFECTION ASSAY - IC50): 7.44 µM
38 | CN(C)C(=O)c1ccc(NCC(=O)N2N=C(c3ccc(Cl)cc3)CC2c2ccco2)cc1 (stereo not given) | 8.21 µM | IC50 (PBLUC_HILL_SLOPE 25.7, PBLUC_R_SQUARED 0.49, read-out: LUCIFERASE INFECTION ASSAY - IC50): 7.54 µM
39 | Cn1c(Nc2ccccc2)nc2cnc(-c3ccc(Cl)cc3)cc21 | > 10 µM | IC50 (PBLUC_HILL_SLOPE 23.8, PBLUC_R_SQUARED 0.319, read-out: LUCIFERASE INFECTION ASSAY - IC50): 9.73 µM
40 | O=C(NC1CCN(Cc2ccccc2)CC1)c1oc2ccccc2c1COc1ccccc1 | > 10 µM | IC50 (PBLUC_HILL_SLOPE 25.1, PBLUC_R_SQUARED 0.225, read-out: LUCIFERASE INFECTION ASSAY - IC50): > 10 µM
